From US6569845B1, “Neovascularization inhibitor containing dienogest as the active ingredient” (Mochida Pharmaceutical Co., Ltd., priority 1997, dated 2003)

Columns and labels:
rabbit cornea = rabbit cornea assay system (Yamamoto); cited from earlier work
[1] = system: angiogenesis induced by the S-180 tumor cells; test: Murine dorsal air sac assay, angiogenesis induced by S-180 tumor cells; type: in vivo; details: mouse
Description: Suppressing Action of Angiogenesis by Murine Dorsal Air Sac Assay According to the method by Iwabana et al. (Cancer Invasion & Metastatic Research Manual, Kinpodo, pp. 172-176, 1995), suppressing action of angiogenesis was tested by the murine dorsal skin method. S-180 tumor cell (murine derived sarcoma) suspended in phosphate buffered saline (PBS) was injected into a Millipore chamber, and the injection opening was closed with a nylon stopper. With an injection syringe, air (10 ml) was injected into the dorsal skin of a mouse anesthetized with Nembutal, to prepare an […], into which the Millipore chamber was transplanted. Animals were preliminarily divided into 4 groups; a Millipore chamber injected with PBS instead of S-180 tumor cells was transplanted into animals of a non-treatment control group (group A), which were then orally given 0.5% CMC carboxymethyl cellulose sodium (0.5% CMC, Wako Pure Chemical Industries, Co.) for 5 days. […] After placing a black ring of the same diameter as the diameter of these chambers at the position of the chambers in place, the number of newly formed vessels of a length of 3 mm or more inside the ring was counted under a stereoscopic microscope. […] Comparison between two groups was done and analyzed by the Wilcoxon's rank sum test; while comparison between multiple groups was done and analyzed by the Dunnett's multiple comparison.

[2] = system: chorioallantoic membrane of chick fertilized egg; test: CAM (chick embryo chorioallantoic membrane) assay, suppressing action of angiogenesis; type: in vivo; details: for Number of choriallantoic membrane with non-vascular region: EV pellet, 2 days at 37° C.
Description: Suppressing Action of Angiogenesis According to CAM (Chick Embryo Chorioallantoic Membrane) Assay
According to the method by Hayashi, et al. (Mechanism of Angiogenesis and Diseases, Medical Journal, pp. 255-266, 1996), the suppressing action of angiogenesis was tested by the CAM assay using chorioallantoic membrane of chick fertilized egg. More specifically, a hole was opened through a chick fertilized egg incubated in an incubator at 37° C. for 4 or 5 days, and then, a silicone ring of an outer diameter of 5 mm and an inner diameter of 3 mm was gently placed on the center of the chorioallantoic membrane, followed by placement of an EV (ethylene-vinyl acetate copolymer) pellet containing dienogest or MPA inside the ring. A chorioallantoic membrane on which an EV pellet with no sample was placed was used as a control group. After incubation at 37° C. for 2 days, a fat emulsion preparation was injected into each chorioallantoic membrane, so as to get a clear view of the vascular network on the chorioallantoic membrane, for subsequent observation. Formation of a non-vascular region of a diameter of 3 mm or more on the chorioallantoic membrane was defined as positive suppressing action on angiogenesis.
a: frequency in % of the occurrence of non-vascular region, in parenthesis.
b: Data of suppressing action on angiogenesis is statistically tested by the Fisher's accurate probability test.

Compound | activity on angiogenic suppression (rabbit cornea) | suppression of angiogenesis induced by the S-180 tumor cells (angiogenesis index) ([1]; group C, 0.1 mg/kg orally for 5 days) | suppression of angiogenesis induced by the S-180 tumor cells (angiogenesis index) ([1]; group D, 1 mg/kg orally for 5 days, vs solvent control group (p<0.001)) | dose that significantly increased the number of chorioallantoic membranes with non-vascular region ([2]; compared with the control group, dose-dependent) | frequency of the occurrence of non-vascular region ([2]; dose 0.01 μg/egg) | Number of choriallantoic membrane with non-vascular region ([2]; dose 0.01 μg/egg) | frequency of the occurrence of non-vascular region ([2]; dose 0.1 μg/egg) | Number of choriallantoic membrane with non-vascular region ([2]; dose 0.1 μg/egg) | frequency of the occurrence of non-vascular region ([2]; dose 1 μg/egg) | Number of choriallantoic membrane with non-vascular region ([2]; dose 1 μg/egg) | frequency of the occurrence of non-vascular region ([2]; dose 10 μg/egg) | Number of choriallantoic membrane with non-vascular region ([2]; dose 10 μg/egg) | frequency of the occurrence of non-vascular region ([2]; dose 100 μg/egg) | Number of choriallantoic membrane with non-vascular region ([2]; dose 100 μg/egg) | frequency of the occurrence of non-vascular region ([2]; dose 1000 μg/egg) | Number of choriallantoic membrane with non-vascular region ([2]; dose 1000 μg/egg) | number of chorioallantoic membranes with non-vascular region compared with the control group ([2]; 100 μg/egg)
CC(=O)[C@H]1CC[C@H]2[C@@H]3CCC4=CC(=O)CC[C@]4(C)[C@H]3CC[C@]12C [progesterone] | does not have any activity on angiogenic suppression | – | – | – | – | – | – | – | – | – | – | – | – | – | – | – | –
C[C@]12CCC3=C4CCC(=O)C=C4CC[C@H]3[C@@H]1CC[C@@]2(O)CC#N [Dienogest, 17 α-cyanomethyl-17 β-hydroxy-estra-4, 9(10)-dien-3-one] | – | weak suppression of angiogenesis | significantly suppressed angiogenesis | ≥ 0.01 μg/egg | 13.3% | 2 | 23.5% | 4 | 48.1% | 13 | 54.2% | 13 | 83.3% | 20 | 91.7% | 22 | –
CC(=O)O[C@]1(C(C)=O)CC[C@H]2[C@@H]3C[C@H](C)C4=CC(=O)CC[C@]4(C)[C@H]3CC[C@@]21C [MPA, medroxyprogesterone acetate] | – | – | – | – | – | – | – | – | – | – | – | – | 50.0% | 4 | – | – | significantly increased
